Test results published in article PMC7700029, “Repurposing Napabucasin as an Antimicrobial Agent against Oral Streptococcal Biofilms” (BioMed Research International, 2020).

Key:
[1] = tested on: oral streptococcal multispecies biofilms; test: Multispecies biofilm composition by FISH and qPCR; type: cell-based, S. mutans, S. gordonii, S. sanguinis; conditions: 62.5 μg/mL NAP, 5 min three times per day for 3 days; for total amount of streptococci: 0.2% CHX
Experimental: The multispecies biofilms were cultivated in accordance with a previous study. Overnight cultures of S. mutans, S. gordonii, and S. sanguinis were simultaneously inoculated (inoculum ratio = 1 : 1 : 1). The chemotaxis chamber μ-Slide, which has extremely low values of birefringence and autofluorescence, was used for bacterial culture and confocal microscopy. Bacterial suspensions (1 × 10^5CFU/mL for each strain) were mixed in 300 μL BHI containing 1% sucrose (BHIS) in the μ-Slide (8 wells, 80826, Ibidi) at 37°C for 24 h. Then, biofilms were exposed to PBS, 62.5 μg/mL NAP, and 0.2% CHX for 3 days (5 min, three times per day). This short-term repeated treatment was to simulate the daily exposure to the mouth rinses. For fluorescent in situ hybridization imaging, biofilms were fixed in 4% paraformaldehyde overnight and investigated by species-specific probes. The multispecies biofilms were imaged with a confocal laser scanning microscope (FV1000, Olympus, Tokyo, Japan). Total DNA of biofilms were isolated and purified using a TIANamp Bacteria DNA kit (TIANGEN, Beijing, China). The purity and concentration of DNA were detected with a NanoDrop 2000 spectrophotometer (Thermo Scientific, Waltham, MA, USA). The extracts were stored at -20°C until use. TaqMan real-time polymerase chain reaction (Life Technologies, Carlsbad, CA, USA) was used to quantify the absolute number of S. mutans, S. gordonii, and S. sanguinis as described by the manufacturer (Takara, Dalian, China).

S. mutans biofilm = test: Biofilm formation inhibition, crystal violet (MBIC); type: cell-based, Streptococcus mutans; conditions: 24 h, 90% or more inhibition of biofilm formation
Experimental: The minimum biofilm inhibition concentration (MBIC) was used to evaluate the effect of NAP on biofilm formation. S. mutans, S. gordonii, or S. sanguinis (1 × 10^7CFU/mL, 10 μL/well) were grown in BHIS with twofold serial dilution of NAP (200 μL/well) ranging from 0.12 to 125 μg/mL at 37°C for 24 h. A parallel study was also performed with BHIS as a negative control. Then, the supernatants from the wells were decanted, and the adherent biofilm was washed three times with PBS to remove the planktonic cells. Fixed with methanol for 15 min and air-dried at room temperature, the biofilm was stained with 0.1% (wt/vol) crystal violet (Sigma) for 5 min, rinsed with deionized water until blank control wells were colorless, and added 200 μL of 95% ethanol to each crystal violet-stained well. Subsequently, the plate was rocked 30 min at room temperature, and the absorbance at 595 nm was recorded. The percentage of inhibition was calculated using the equation: (A595ofnegativecontrol − A595ofthetestgroup)/A595ofnegativecontrol × 100%.

[2] = tested on: oral streptococcal multispecies biofilms; test: Multispecies biofilm imaging (dead/live, EPS staining, CLSM); type: cell-based, S. mutans, S. gordonii, S. sanguinis; conditions: 5 min three times per day for 3 days; for structural integrity of multispecies biofilms: 0.2% CHX
Experimental: The multispecies biofilms were cultivated in accordance with a previous study. Overnight cultures of S. mutans, S. gordonii, and S. sanguinis were simultaneously inoculated (inoculum ratio = 1 : 1 : 1). The chemotaxis chamber μ-Slide, which has extremely low values of birefringence and autofluorescence, was used for bacterial culture and confocal microscopy. Bacterial suspensions (1 × 10^5CFU/mL for each strain) were mixed in 300 μL BHI containing 1% sucrose (BHIS) in the μ-Slide (8 wells, 80826, Ibidi) at 37°C for 24 h. Then, biofilms were exposed to PBS, 62.5 μg/mL NAP, and 0.2% CHX for 3 days (5 min, three times per day). This short-term repeated treatment was to simulate the daily exposure to the mouth rinses.
For dead/live imaging, biofilms were stained with fluorescent LIVE/DEAD BacLight Bacterial Viability stain (Molecular Probes, Invitrogen) containing SYTO 9 and propidium iodide according to the manufacturer's instructions. The labeled biofilms were imaged with a DMIRE2 confocal laser scanning microscope (Leica, Wetzlar, Germany) equipped with a 60x oil immersion objective lens.
For extracellular polysaccharide (EPS) staining, the bacterial cell and the EPS were stained with SYTO 9 (Molecular Probes) and Alexa Fluor 647-labeled dextran conjugate (Molecular Probes) as described previously. The biofilms were captured with a Leica DMIRE2 confocal laser scanning microscope as in live/dead imaging.
All three-dimensional reconstructions of the biofilms were performed with Imaris 7.0.0 (Bitplane, Zürich, Switzerland). The quantification of the dead/live and EPS/bacteria volume ratio was, respectively, performed with Image-Pro Plus (Media Cybernetics, Silver Spring, MD, USA) and COMSTAT (http://www.image-analysis.dk).

[3] = tested on: multispecies biofilms on human enamel slabs; test: Biofilm-induced demineralization of human enamel slabs, transverse microradiography; type: cell-based, S. mutans, S. gordonii, S. sanguinis; conditions: 62.5 μg/mL NAP, 0.2% CHX, 5 min three times per day for 5 days; compared to negative control
Source text: Human teeth free of white spots, cracks, and other defects that had been extracted for periodontal or impacted reasons were collected under a protocol approved by the Ethics Committee of West China Hospital of Stomatology, Sichuan University (WCHSIRB-D-2018-107). Crowns were separated from roots and cut into four sections measuring 5mm × 5mm × 2mm by using a diamond-coated saw (Struers Minitom; Struers, Copenhagen, Denmark) under continuous water cooling. The enamel slabs were embedded in polymethylmethacrylate and painted with two layers of acid-resistant nail varnish, leaving a 4mm × 4mm window of the exposed enamel surface. Then, these surfaces were polished progressively with waterproof silicon carbide abrasive papers (800–4000 grit; Struers, Copenhagen, Denmark) and were ultrasonically cleaned in a deionized water for 5 min to remove the residual abrasives. All slabs were sterilized with ethylene oxide. The 30 specimens were randomly divided into 3 groups: PBS, 62.5 μg/mL NAP, and 0.2% CHX. Enamel slabs obtained from the same tooth were evenly distributed to each test group.
Overnight cultures of S. mutans, S. gordonii, and S. sanguinis (1 × 10^7CFU/mL) were simultaneously inoculated on enamel slabs in a 24-well cell culture plate with BHIS at 37°C. Slabs with biofilms were then exposed to PBS, 62.5 μg/mL NAP, and 0.2% CHX for 5 days (5 min, three times per day). The 5-day demineralization duration was in accordance with previous studies. All specimens were then washed in PBS and refreshed with BHIS after every exposure. After 5 days of treatment, specimens were taken out and rinsed with PBS to remove the biofilms. Then, specimens were cut again and polished with a hand plane—parallel from both sides with waterproof silicon carbide abrasive papers (800–4000 grit; Struers, Copenhagen, Denmark) to thickness ranging around […]. X-ray films of experimental lesions were acquired with an X-ray generator (Softex, Japan) equipped with a microradiography camera and then were further examined using a Zeiss AXIO Imager A2 microscope (Carl Zeiss, Germany). Quantitative data was acquired by a calibrated analysis system TMR2006 (Inspektor Research Systems BV, Netherlands). Data are obtained as the mean of 10 separate samples.

[4] = design: method as in PMID 28573435, PMID 31241371; conditions: orally 240 mg twice a day, patients with advanced malignancies; cited from earlier work
[5] = 62.5 μg/mL NAP compared to 0.2% CHX

[H]/N=C(\N/C(=N/[H])NCCCCCCNC(=N)NC(=N)Nc1ccc(Cl)cc1)Nc1ccc(Cl)cc1 [CHX, Chlorhexidine]
total amount of streptococci [1]: significantly reduced the total amount of streptococci
MBIC (S. mutans biofilm): 0.98 µg/mL
structural integrity of multispecies biofilms ([2]; 62.5 μg/mL NAP): disrupted the structural integrity of multispecies biofilms significantly
depth of biofilm-induced lesion [3]: significantly reduced
mineral loss of enamel [3]: significantly reduced

CC(=O)c1cc2c(o1)C(=O)c1ccccc1C2=O [NAP, 2-acetylfuro-1,4-naphathoquinone]
total amount of streptococci [1]: significantly reduced the total amount of streptococci
multispecies biofilm composition [1]: inhibited S. mutans and S. sanguinis but increased the proportion of the commensal S. gordonii
MBIC (S. mutans biofilm): 1.95 µg/mL
EPS/bacteria ratio [2, 5]: equivalent
dead/live cell ratio [2, 5]: equivalent dead/live cell ratio
bacteria within the biofilms (volume) ([2]; 62.5 μg/mL NAP vs 0.2% CHX): further reduced the bacteria within the oral streptococcal biofilms as compared to CHX
structural integrity of multispecies biofilms ([2]; 62.5 μg/mL NAP): disrupted the structural integrity of multispecies biofilms significantly
EPS production in the biofilm ([2]; 62.5 μg/mL NAP): significantly inhibit EPS production
adverse events [4]: generally mild
depth of biofilm-induced lesion [3]: significantly reduced
mineral loss of enamel [3]: significantly reduced
